Structures are written as SMILES. Several values for one entry are separate records, joined by “and”; a condition that tells them apart may be missing. Equal values may be shown once.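 Cultured in 96-well plates, cells were exposed to test compound for 48 hours across five concentrations. GI50: concentration for 50% inhibition of growth. The concentration for full growth arrest is given as TGI.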

Test systems include IGROV1 ovarian; SF-268 CNS; SF-539 CNS; T-47D breast; SK-MEL-5 melanoma; OVCAR-3 ovarian; COLO 205 colon; RPMI-8226 leukemia; NCI-H226 lung; MOLT-4 leukemia.
Common to all, as to assay: inhibition of tumour cell growth, NCI panel, 48 h

With `CCOC(=O)C1=C(C)NC2SC(=O)/C(=C\c3ccccc3Cl)N2C1c1ccccc1` (stereo unspecified), the GI50 in the assay on IGROV1 ovarian was above 100 µM; with SF-268 CNS, above 100 µM; with SF-539 CNS, above 100 µM; in the assay on T-47D breast it was 33.8 µM; with SK-MEL-5 melanoma it was 50.2 µM; in the assay with OVCAR-3 ovarian it was above 100 µM. Besides, the GI50 in the assay on COLO 205 colon is above 100 µM; with RPMI-8226 leukemia it was 79.7 µM; in the assay on NCI-H226 lung it was above 100 µM. Moreover, the TGI with IGROV1 ovarian, in the assay on SF-268 CNS, in the assay on SF-539 CNS, with T-47D breast, in the assay on SK-MEL-5 melanoma and in the assay on OVCAR-3 ovarian was above 100 µM throughout. Also, the TGI with COLO 205 colon, in the assay with RPMI-8226 leukemia and in the assay on NCI-H226 lung was above 100 µM in each case.
Consider `CCCCN(CCCC)c1ccc(C(=N)c2ccc(N(C)C)cc2)cc1`, for which the GI50 with IGROV1 ovarian was 0.906 µM; with SF-268 CNS it was 1.3 µM; with SF-539 CNS it was 1.53 µM; in the assay on T-47D breast it was 0.322 µM; in the assay on SK-MEL-5 melanoma, 0.505 µM; with OVCAR-3 ovarian, 0.448 µM. Further, the GI50 was 0.455 µM in the assay with COLO 205 colon, 0.224 µM with RPMI-8226 leukemia and 1.2 µM in the assay with NCI-H226 lung. Also, the TGI with IGROV1 ovarian is 2.44 µM; with SF-268 CNS it was 2.73 µM; in the assay with SF-539 CNS, 3.16 µM; in the assay with T-47D breast it was 1.51 µM; with SK-MEL-5 melanoma it was 1.7 µM; in the assay on OVCAR-3 ovarian, 1.6 µM. Further, the TGI in the assay with COLO 205 colon was 1.65 µM; in the assay on RPMI-8226 leukemia, 0.737 µM; with NCI-H226 lung, 2.63 µM.
In the case of `O=[N+]([O-])c1cc([N+](=O)[O-])c(Cl)c(Cl)c1Cl`, the GI50 was 1.23 µM with IGROV1 ovarian; 1.73 µM in the assay on SF-268 CNS; 0.631 µM with T-47D breast; 1.75 µM in the assay with SK-MEL-5 melanoma; 1.18 µM in the assay with OVCAR-3 ovarian; 0.831 µM in the assay on MOLT-4 leukemia. Further, the GI50 in the assay on COLO 205 colon is 0.616 µM; with RPMI-8226 leukemia it was 1.54 µM. Further, the TGI stood at 7.25 µM in the assay on IGROV1 ovarian; 3.92 µM in the assay with SF-268 CNS; 2.84 µM with T-47D breast; 3.35 µM in the assay with SK-MEL-5 melanoma; 2.4 µM in the assay on OVCAR-3 ovarian; 5.82 µM in the assay with MOLT-4 leukemia. Further, the TGI with COLO 205 colon came to 2.03 µM; in the assay with RPMI-8226 leukemia it was 5.01 µM.
For the compound `CC1=CC[C@@H]2C(C)(C)C(=O)CC[C@@]2(C)[C@@H]1COc1ccc2ccc(=O)oc2c1`, the GI50 with IGROV1 ovarian was 16.2 µM; in the assay on SF-268 CNS it was 23.3 µM; with SF-539 CNS it was 20.1 µM; in the assay on T-47D breast, 2.69 µM; in the assay on SK-MEL-5 melanoma, 4 µM; with OVCAR-3 ovarian it was 10.1 µM. The GI50 was 3.79 µM in the assay with MOLT-4 leukemia, 10.6 µM in the assay with COLO 205 colon and 8.7 µM in the assay on NCI-H226 lung. The TGI in the assay with IGROV1 ovarian is 55.1 µM; in the assay with SF-268 CNS it was above 100 µM; in the assay with SF-539 CNS it was 63.8 µM; in the assay on T-47D breast, 11.1 µM; in the assay with SK-MEL-5 melanoma it was 14.2 µM; with OVCAR-3 ovarian it was 56.9 µM. Further, the TGI in the assay on MOLT-4 leukemia was 17.9 µM; with COLO 205 colon, 39.4 µM; in the assay on NCI-H226 lung it was 33.7 µM.
Regarding `COc1cccc(C(=O)Nc2ccc(CN3CCc4nc5cc(OC)c(OC)cc5cc43)cc2)c1`, the GI50 in the assay with IGROV1 ovarian is 5.15 µM; in the assay on SF-268 CNS, 6.51 µM; in the assay on SF-539 CNS it was 5.51 µM; in the assay with T-47D breast, 4.49 µM; in the assay with SK-MEL-5 melanoma, 2.97 µM; in the assay on MOLT-4 leukemia, 2.85 µM. Besides, the GI50 is 2.69 µM with COLO 205 colon, 3.89 µM in the assay on RPMI-8226 leukemia and 5.69 µM in the assay with NCI-H226 lung. Besides, the TGI is above 100 µM in the assay on IGROV1 ovarian; above 100 µM in the assay with SF-268 CNS; 23.8 µM with SF-539 CNS; 53.7 µM in the assay on T-47D breast; 10.9 µM in the assay on SK-MEL-5 melanoma; 10.7 µM with MOLT-4 leukemia. For the same compound, the TGI with COLO 205 colon was 7.03 µM; in the assay on RPMI-8226 leukemia, 24.3 µM; in the assay with NCI-H226 lung it was above 100 µM.
Turning to `O=C1c2ccccc2NC(c2cc(Cl)cc(Cl)c2O)N1CCc1ccccn1` (stereo unspecified), the TGI in the assay on IGROV1 ovarian was above 100 µM; in the assay on SF-268 CNS it was above 100 µM; in the assay with SF-539 CNS it was above 100 µM; with T-47D breast, 69.8 µM; with SK-MEL-5 melanoma it was above 100 µM; with OVCAR-3 ovarian, above 100 µM. The TGI in the assay with COLO 205 colon, in the assay on RPMI-8226 leukemia and with NCI-H226 lung was above 100 µM in each case.
With `N=Nc1c(OC(=O)Nc2ccccc2)[nH]c2ccccc12`, the TGI is 42.2 µM in the assay with IGROV1 ovarian; above 100 µM in the assay on SF-268 CNS; 37.4 µM in the assay on SF-539 CNS; 37.7 µM in the assay with T-47D breast; 51.9 µM with SK-MEL-5 melanoma; 26.7 µM in the assay with OVCAR-3 ovarian. Further, the results for the TGI with COLO 205 colon, with RPMI-8226 leukemia and in the assay with NCI-H226 lung were 42.9 µM, 32.1 µM and 37.9 µM, respectively.
Turning to `COc1cc(NS(C)(=O)=O)ccc1Nc1c2ccccc2nc2c(C)cccc12`, the GI50 is 0.541 µM and 0.438 µM in the assay with IGROV1 ovarian; 0.266 µM and 0.288 µM in the assay with SF-268 CNS; 0.102 µM and 0.123 µM in the assay with SF-539 CNS; 0.111 µM and 0.109 µM with T-47D breast; 0.153 µM and 0.218 µM in the assay with SK-MEL-5 melanoma; 0.794 µM and 0.933 µM with OVCAR-3 ovarian. For the same compound, the GI50 with MOLT-4 leukemia is 0.0245 µM and 0.0304 µM; with COLO 205 colon, 0.245 µM and 0.243 µM; in the assay on RPMI-8226 leukemia, 0.187 µM and 0.134 µM. Moreover, the TGI was 24.1 µM and 19.9 µM with IGROV1 ovarian; 13.6 µM and 14.2 µM in the assay with SF-268 CNS; 0.699 µM and 0.584 µM in the assay on SF-539 CNS; 4.05 µM and 5.71 µM with T-47D breast; 1.2 µM and 3.69 µM in the assay with SK-MEL-5 melanoma; 2.35 µM and 2.94 µM with OVCAR-3 ovarian. For the same compound, the TGI in the assay on MOLT-4 leukemia is 0.229 µM and 0.176 µM; in the assay on COLO 205 colon, 2.59 µM and 5.16 µM; with RPMI-8226 leukemia it was 0.853 µM and 0.717 µM.
As to `C/C=C(\C)c1cc(=O)c2c(C)cc3c(c2o1)C(=O)c1c(O)c(C2CC(C)(N(C)C)C(O)C(C)O2)cc(C2CC(N(C)C)C(O)C(C)O2)c1C3=O` (stereo unspecified), the TGI in the assay with IGROV1 ovarian was 3.2 µM and > 27.6 µM; in the assay with SF-268 CNS, 0.738 µM and 4.52 µM; in the assay on T-47D breast, 3.12 µM; in the assay with MOLT-4 leukemia it was 15.6 µM; in the assay on COLO 205 colon it was 4.09 µM and 20.1 µM. For the same compound, the GI50 with SF-268 CNS was 0.134 µM and 0.632 µM; with MOLT-4 leukemia, 0.687 µM.
